Values joined by “and” are separate entries in the source; they are usually repeats but may differ in a detail not shown here. Equal values may be shown once.

One assay has as its system VRE. Briefly: Broth microdilution MIC, Example 7 (NCL812 and analogues). Format: cell-based, Enterococcus spp. The following applies: VRE 1, 24 hours. Summed up: (§1)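 Values are MICs in μg/ml from broth microdilution per CLSI, with growth scored against a drug-free well.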
As for `COc1ccc(/C=N/Nc2cc(N/N=C/c3ccc(OC)cc3)nc(N)n2)cc1` [NCL230], the “MIC (μg/ml) at 24 hours, VRE 1” value is above 128 µg/mL.

Staying with this assay, now noted: VRE 1; 24 hours; duplicate lines per compound.
In the case of `Cc1ccc(/C=N/NC(=N)N/N=C/c2ccc(C)cc2)cc1.Cl` [NCL 038], the “MIC (μg/ml) at 24 hours, VRE 1” value amounted to 8 µg/mL.
With `COc1ccc(C=NNC(=N)NN=Cc2ccc(OC)c(OC)c2)cc1OC.Cl` [NCL 115], the “MIC (μg/ml) at 24 hours, VRE 1” value is above 128 µg/mL.
On to `Cl.N=C(NN=Cc1ccccc1-c1ccccc1)NN=Cc1ccccc1-c1ccccc1` [NCL 116], for which the “MIC (μg/ml) at 24 hours, VRE 1” value is above 128 µg/mL.
Same read-out and setting: for `COc1cc(/C=N/NC(=N)N/N=C/c2ccc(O)c(OC)c2)ccc1O.Cl` [NCL 117] the value was 64 µg/mL; for `Cl.N=C(N/N=C/c1cc(F)ccc1F)N/N=C/c1cc(F)ccc1F` [NCL 118], above 128 µg/mL; for `CC(=O)Nc1ccc(C=NNC(=N)NN=Cc2ccc(NC(C)=O)cc2)cc1.Cl` [NCL 119], above 128 µg/mL.
The same measure, in the same setting: as for `CC(C)c1ccc(/C=N/NC(=N)N/N=C/c2ccc(C(C)C)cc2)cc1.Cl` [NCL 120], the figure is 2 µg/mL.
Consider `CCCc1ccc(C=NNC(=N)NN=Cc2ccc(CCC)cc2)cc1.Cl` [NCL 121], for which the “MIC (μg/ml) at 24 hours, VRE 1” value amounted to 8 µg/mL.

The assay is the same for the next values; noted with them: VRE 2, 24 hours.
As for `COc1ccc(/C=N/Nc2cc(N/N=C/c3ccc(OC)cc3)nc(N)n2)cc1` [NCL230], the “MIC (μg/ml) at 24 hours, VRE 2” value was above 128 µg/mL.

The assay is the same for the next values; noted with them: VRE 2; 24 hours; duplicate lines per compound.
Turning to `Cc1ccc(/C=N/NC(=N)N/N=C/c2ccc(C)cc2)cc1.Cl` [NCL 038], the “MIC (μg/ml) at 24 hours, VRE 2” value turned out to be 8 µg/mL.
With `COc1ccc(C=NNC(=N)NN=Cc2ccc(OC)c(OC)c2)cc1OC.Cl` [NCL 115], the “MIC (μg/ml) at 24 hours, VRE 2” value is above 128 µg/mL.
Same read-out and setting: for `Cl.N=C(NN=Cc1ccccc1-c1ccccc1)NN=Cc1ccccc1-c1ccccc1` [NCL 116] the value was above 128 µg/mL; for `COc1cc(/C=N/NC(=N)N/N=C/c2ccc(O)c(OC)c2)ccc1O.Cl` [NCL 117], 64 µg/mL; for `Cl.N=C(N/N=C/c1cc(F)ccc1F)N/N=C/c1cc(F)ccc1F` [NCL 118], above 128 µg/mL.
On the same count and under the same terms, for `CC(=O)Nc1ccc(C=NNC(=N)NN=Cc2ccc(NC(C)=O)cc2)cc1.Cl` [NCL 119] the value was above 128 µg/mL; for `CC(C)c1ccc(/C=N/NC(=N)N/N=C/c2ccc(C(C)C)cc2)cc1.Cl` [NCL 120], 8 µg/mL.
Regarding `CCCc1ccc(C=NNC(=N)NN=Cc2ccc(CCC)cc2)cc1.Cl` [NCL 121], the “MIC (μg/ml) at 24 hours, VRE 2” value was 32 µg/mL and 64 µg/mL.

The subject of the next assay is Escherichia coli. The description is as above. Format: cell-based. The following applies: E. coli, 24 hours.
Consider `COc1ccc(/C=N/Nc2cc(N/N=C/c3ccc(OC)cc3)nc(N)n2)cc1` [NCL230], for which the “MIC (μg/ml) at 24 hours, E. coli” value is above 128 µg/mL.

The assay is the same for the next values; noted with them: E. coli; 24 hours; duplicate lines per compound.
Regarding `Cc1ccc(/C=N/NC(=N)N/N=C/c2ccc(C)cc2)cc1.Cl` [NCL 038], the “MIC (μg/ml) at 24 hours, E. coli” value was above 128 µg/mL.
Still for that read-out and setting: as for `COc1ccc(C=NNC(=N)NN=Cc2ccc(OC)c(OC)c2)cc1OC.Cl` [NCL 115], the figure is above 128 µg/mL; as for `Cl.N=C(NN=Cc1ccccc1-c1ccccc1)NN=Cc1ccccc1-c1ccccc1` [NCL 116], above 128 µg/mL.
Still for that read-out and setting: for `COc1cc(/C=N/NC(=N)N/N=C/c2ccc(O)c(OC)c2)ccc1O.Cl` [NCL 117] the value was above 128 µg/mL.
In the case of `Cl.N=C(N/N=C/c1cc(F)ccc1F)N/N=C/c1cc(F)ccc1F` [NCL 118], the “MIC (μg/ml) at 24 hours, E. coli” value was above 128 µg/mL.
On the same count and under the same terms, as for `CC(=O)Nc1ccc(C=NNC(=N)NN=Cc2ccc(NC(C)=O)cc2)cc1.Cl` [NCL 119], the figure is above 128 µg/mL; as for `CC(C)c1ccc(/C=N/NC(=N)N/N=C/c2ccc(C(C)C)cc2)cc1.Cl` [NCL 120], above 128 µg/mL; as for `CCCc1ccc(C=NNC(=N)NN=Cc2ccc(CCC)cc2)cc1.Cl` [NCL 121], above 128 µg/mL.

The subject of another assay is MRSA. The assay is described as above. Format: cell-based, Staphylococcus aureus. The following applies: MRSA 1, 24 hours. Summed up:
as §1
On to `COc1ccc(/C=N/Nc2cc(N/N=C/c3ccc(OC)cc3)nc(N)n2)cc1` [NCL230], for which the “MIC (μg/ml) at 24 hours, MRSA 1” value is above 128 µg/mL.

The same assay, now with this note: MRSA 1; 24 hours; duplicate lines per compound.
For the compound `Cc1ccc(/C=N/NC(=N)N/N=C/c2ccc(C)cc2)cc1.Cl` [NCL 038], the “MIC (μg/ml) at 24 hours, MRSA 1” value was 8 µg/mL.
Same read-out and setting: for `COc1ccc(C=NNC(=N)NN=Cc2ccc(OC)c(OC)c2)cc1OC.Cl` [NCL 115] the value was above 128 µg/mL.
The same measure, in the same setting: for `Cl.N=C(NN=Cc1ccccc1-c1ccccc1)NN=Cc1ccccc1-c1ccccc1` [NCL 116] the value was above 128 µg/mL; for `COc1cc(/C=N/NC(=N)N/N=C/c2ccc(O)c(OC)c2)ccc1O.Cl` [NCL 117], 64 µg/mL; for `Cl.N=C(N/N=C/c1cc(F)ccc1F)N/N=C/c1cc(F)ccc1F` [NCL 118], above 128 µg/mL.
Still for that read-out and setting: for `CC(=O)Nc1ccc(C=NNC(=N)NN=Cc2ccc(NC(C)=O)cc2)cc1.Cl` [NCL 119] the value was above 128 µg/mL; for `CC(C)c1ccc(/C=N/NC(=N)N/N=C/c2ccc(C(C)C)cc2)cc1.Cl` [NCL 120], 8 µg/mL; for `CCCc1ccc(C=NNC(=N)NN=Cc2ccc(CCC)cc2)cc1.Cl` [NCL 121], 32 µg/mL.

The same assay, now with this note: MRSA 2, 24 hours.
`COc1ccc(/C=N/Nc2cc(N/N=C/c3ccc(OC)cc3)nc(N)n2)cc1` [NCL230]: the “MIC (μg/ml) at 24 hours, MRSA 2” value was above 128 µg/mL.

Still in this assay, the particulars now being: MRSA 2; 24 hours; duplicate lines per compound.
`Cc1ccc(/C=N/NC(=N)N/N=C/c2ccc(C)cc2)cc1.Cl` [NCL 038]: the “MIC (μg/ml) at 24 hours, MRSA 2” value came out at 8 µg/mL.
As for `COc1ccc(C=NNC(=N)NN=Cc2ccc(OC)c(OC)c2)cc1OC.Cl` [NCL 115], the “MIC (μg/ml) at 24 hours, MRSA 2” value was above 128 µg/mL.
Still for that read-out and setting: as for `Cl.N=C(NN=Cc1ccccc1-c1ccccc1)NN=Cc1ccccc1-c1ccccc1` [NCL 116], the figure is above 128 µg/mL.
`COc1cc(/C=N/NC(=N)N/N=C/c2ccc(O)c(OC)c2)ccc1O.Cl` [NCL 117]: the “MIC (μg/ml) at 24 hours, MRSA 2” value turned out to be 128 µg/mL.
Regarding `Cl.N=C(N/N=C/c1cc(F)ccc1F)N/N=C/c1cc(F)ccc1F` [NCL 118], the “MIC (μg/ml) at 24 hours, MRSA 2” value is above 128 µg/mL.
On the same count and under the same terms, for `CC(=O)Nc1ccc(C=NNC(=N)NN=Cc2ccc(NC(C)=O)cc2)cc1.Cl` [NCL 119] the value was above 128 µg/mL; for `CC(C)c1ccc(/C=N/NC(=N)N/N=C/c2ccc(C(C)C)cc2)cc1.Cl` [NCL 120], 4 µg/mL and 8 µg/mL; for `CCCc1ccc(C=NNC(=N)NN=Cc2ccc(CCC)cc2)cc1.Cl` [NCL 121], 32 µg/mL.

In a further assay the test system is Pseudomonas aeruginosa. The assay is described as above. Format: cell-based. The following applies: P. aeruginosa, 24 hours.
For the compound `COc1ccc(/C=N/Nc2cc(N/N=C/c3ccc(OC)cc3)nc(N)n2)cc1` [NCL230], the “MIC (μg/ml) at 24 hours, P. aeruginosa” value was above 128 µg/mL.

The same assay, now with this note: P. aeruginosa; 24 hours; duplicate lines per compound.
In the case of `Cc1ccc(/C=N/NC(=N)N/N=C/c2ccc(C)cc2)cc1.Cl` [NCL 038], the “MIC (μg/ml) at 24 hours, P. aeruginosa” value is above 128 µg/mL.
The same measure, in the same setting: as for `COc1ccc(C=NNC(=N)NN=Cc2ccc(OC)c(OC)c2)cc1OC.Cl` [NCL 115], the figure is above 128 µg/mL; as for `Cl.N=C(NN=Cc1ccccc1-c1ccccc1)NN=Cc1ccccc1-c1ccccc1` [NCL 116], above 128 µg/mL.
On the same count and under the same terms, for `COc1cc(/C=N/NC(=N)N/N=C/c2ccc(O)c(OC)c2)ccc1O.Cl` [NCL 117] the value was above 128 µg/mL.
Still for that read-out and setting: as for `Cl.N=C(N/N=C/c1cc(F)ccc1F)N/N=C/c1cc(F)ccc1F` [NCL 118], the figure is above 128 µg/mL.
For `CC(=O)Nc1ccc(C=NNC(=N)NN=Cc2ccc(NC(C)=O)cc2)cc1.Cl` [NCL 119], the “MIC (μg/ml) at 24 hours, P. aeruginosa” value is above 128 µg/mL.
Still for that read-out and setting: for `CC(C)c1ccc(/C=N/NC(=N)N/N=C/c2ccc(C(C)C)cc2)cc1.Cl` [NCL 120] the value was above 128 µg/mL; for `CCCc1ccc(C=NNC(=N)NN=Cc2ccc(CCC)cc2)cc1.Cl` [NCL 121], above 128 µg/mL.

The values above are taken from patent US10253002B2, “Compounds and methods of treating infections” (Neoculi Pty Ltd., priority 2013, dated 2019).
